Results as given in article PMC10746543, “Design principles for cyclin K molecular glue degraders” (Nature Chemical Biology, 2023).
“And” between values parts separate entries of the source, which are not always exact repeats. Equal values may be shown once. Read-outs that look alike come from different tables or passages of the source. One block for each molecule: values may come before it.

Columns and labels:
CDK12–cyclin K and DDB1 = target: T1, CDK12–cyclin K and DDB1 (Homo sapiens, UniProt Q16531+Q9NYV4, K965R); experiment: TR-FRET ternary complex formation assay (compound titration); assay type: binding; settings: for TR-FRET signal at compound concentration: replicate titrations
T1 construct: His6–CDK12 (a.a. 713–1,052); full-length or beta-propeller B domain deletion (ΔBPB: a.a. 396–705 deleted) constructs of His6–DDB1ΔBPB, StrepII–Avi–DDB1, or His6–Spy–DDB1; made in house; host or cells: Trichoplusia ni High Five insect cells (baculovirus)
In short: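 A time delay of 70 μs preceded acquisition, limiting background fluorescence; the ratio of emission at 520 versus 490 nm gave the TR-FRET value.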

[1] = system: cyclin K–eGFP degradation reporter; experiment: Cyclin K reporter stability analysis (dual-color cyclin K–eGFP reporter); assay type: cell-based, human; settings: Supplementary Table 2; HEK293T cycK-eGFP reporter, 5 h; read-out: Cellular assays DC50
In short: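 First, reporter-bearing HEK293T–Cas9 cells are plated at 1 × 10^6 ml^−1. Next, drug or vehicle is added for 5 h. Finally, geometric-mean eGFP and mCherry signals of round, mCherry-positive cells are measured cytometrically, and their ratio is referenced to the DMSO average.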

HEK293T cells = experiment: Drug sensitivity assay (CellTiter-Glo viability) with or without MLN4924 pretreatment; assay type: cell-based, human; settings: Supplementary Table 2; for EC50: Homo sapiens, HEK-293T, HEK293T viability, 72 h, compound alone, read-out: Cellular assays EC50; for Toxicity rescue: MLN4924-mediated cytotoxicity rescue, 10 µM used where n.d.
In short: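 Cas9-expressing HEK293T cells receive either vehicle or 100 nM MLN4924, then compounds 2 h afterwards. After three days, luminescence-based viability is measured and calculated relative to DMSO.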

[2] = Supplementary Table 2, read-out: TR-FRET EC50 TR-FRET
[3] = compound concentration 0.468 nM
[4] = compound concentration 7.92001 nM
[5] = compound concentration 15.84 nM
[6] = compound concentration 30.96 nM
[7] = compound concentration 62.6401 nM
[8] = compound concentration 125.28 nM
[9] = compound concentration 244.8 nM
[10] = compound concentration 993.601 nM
[11] = compound concentration 2001.6 nM
[12] = in vitro complex formation, 50 nM CDK12–cyclin K, 100 nM DDB1, text and figures, read-out: TR-FRET EC50
[13] = compound concentration 79.2001 nM
[14] = compound concentration 158.4 nM
[15] = compound concentration 309.6 nM
[16] = compound concentration 626.401 nM
[17] = compound concentration 1252.8 nM
[18] = compound concentration 9936.01 nM
[19] = compound concentration 20016 nM

T1 sequence (Q9NYV4 713-1052 K965R): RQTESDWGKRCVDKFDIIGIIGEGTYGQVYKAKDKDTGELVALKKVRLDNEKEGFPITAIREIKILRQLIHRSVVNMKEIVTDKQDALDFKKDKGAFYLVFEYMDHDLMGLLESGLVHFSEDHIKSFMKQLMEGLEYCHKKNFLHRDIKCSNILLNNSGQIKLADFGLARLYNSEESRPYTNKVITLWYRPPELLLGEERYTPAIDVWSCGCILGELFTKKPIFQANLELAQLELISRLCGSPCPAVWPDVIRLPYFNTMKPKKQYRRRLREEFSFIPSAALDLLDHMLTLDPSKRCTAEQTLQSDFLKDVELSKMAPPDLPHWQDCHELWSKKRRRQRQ
T1 sequence (O75909 1-267 partner): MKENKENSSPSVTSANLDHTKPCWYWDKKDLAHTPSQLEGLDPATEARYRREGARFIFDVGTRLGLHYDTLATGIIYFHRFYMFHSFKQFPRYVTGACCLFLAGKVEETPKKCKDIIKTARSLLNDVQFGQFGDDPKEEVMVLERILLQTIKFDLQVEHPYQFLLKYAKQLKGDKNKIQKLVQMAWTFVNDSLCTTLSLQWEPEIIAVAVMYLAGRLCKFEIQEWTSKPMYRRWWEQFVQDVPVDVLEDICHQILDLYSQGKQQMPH
T1 sequence (Q16531 whole entry): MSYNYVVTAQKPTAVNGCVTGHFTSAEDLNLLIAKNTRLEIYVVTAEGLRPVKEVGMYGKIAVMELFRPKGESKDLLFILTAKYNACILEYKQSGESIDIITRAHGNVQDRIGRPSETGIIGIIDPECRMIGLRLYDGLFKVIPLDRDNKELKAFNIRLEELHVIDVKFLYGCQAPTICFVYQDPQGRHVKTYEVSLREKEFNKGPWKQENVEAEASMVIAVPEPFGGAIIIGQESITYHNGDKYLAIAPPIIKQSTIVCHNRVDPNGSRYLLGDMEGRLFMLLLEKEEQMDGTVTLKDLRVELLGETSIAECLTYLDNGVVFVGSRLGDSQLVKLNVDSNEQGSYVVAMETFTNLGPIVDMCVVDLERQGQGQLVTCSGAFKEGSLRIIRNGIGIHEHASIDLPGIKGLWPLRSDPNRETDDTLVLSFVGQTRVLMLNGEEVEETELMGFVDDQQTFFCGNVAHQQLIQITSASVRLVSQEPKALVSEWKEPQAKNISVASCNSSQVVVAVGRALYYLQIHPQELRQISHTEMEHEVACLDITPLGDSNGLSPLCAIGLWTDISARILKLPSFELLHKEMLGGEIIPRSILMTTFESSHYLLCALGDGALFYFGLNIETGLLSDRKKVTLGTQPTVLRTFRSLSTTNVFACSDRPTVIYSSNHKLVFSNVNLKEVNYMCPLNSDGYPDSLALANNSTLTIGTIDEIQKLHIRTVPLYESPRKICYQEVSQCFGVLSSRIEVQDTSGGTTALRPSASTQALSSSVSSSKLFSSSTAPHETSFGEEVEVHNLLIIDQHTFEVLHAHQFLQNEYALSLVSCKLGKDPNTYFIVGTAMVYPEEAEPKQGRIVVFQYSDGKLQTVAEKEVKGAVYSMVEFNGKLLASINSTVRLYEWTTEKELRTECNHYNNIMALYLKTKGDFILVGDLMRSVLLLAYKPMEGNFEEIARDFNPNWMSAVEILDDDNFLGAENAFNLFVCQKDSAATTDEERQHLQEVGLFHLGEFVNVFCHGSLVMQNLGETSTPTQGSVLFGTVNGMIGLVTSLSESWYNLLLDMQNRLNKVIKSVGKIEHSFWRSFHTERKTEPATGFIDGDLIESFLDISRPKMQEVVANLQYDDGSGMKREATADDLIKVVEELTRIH

- EC50 (CDK12–cyclin K and DDB1; [2]): 0.0568 µM
- TR-FRET signal (CDK12–cyclin K and DDB1; [3]): 0.241 and 0.2489
- TR-FRET signal, individual replicate (CDK12–cyclin K and DDB1; [3]): 0.241 and 0.2489
- TR-FRET signal at compound concentration (CDK12–cyclin K and DDB1; [3]): 0.241 and 0.2489
- TR-FRET signal (CDK12–cyclin K and DDB1; compound concentration 2.16 nM): 0.2983 and 0.2991
- TR-FRET signal, individual replicate (CDK12–cyclin K and DDB1; compound concentration 2.16 nM): 0.2983 and 0.2991
- TR-FRET signal at compound concentration (CDK12–cyclin K and DDB1; compound concentration 2.16 nM): 0.2983 and 0.2991
- TR-FRET signal (CDK12–cyclin K and DDB1; compound concentration 3.6 nM): 0.374 and 0.3698
- TR-FRET signal, individual replicate (CDK12–cyclin K and DDB1; compound concentration 3.6 nM): 0.374 and 0.3698
- TR-FRET signal at compound concentration (CDK12–cyclin K and DDB1; compound concentration 3.6 nM): 0.374 and 0.3698
- TR-FRET signal (CDK12–cyclin K and DDB1; [4]): 0.5495 and 0.5492
- TR-FRET signal, individual replicate (CDK12–cyclin K and DDB1; [4]): 0.5495 and 0.5492
- TR-FRET signal at compound concentration (CDK12–cyclin K and DDB1; [4]): 0.5495 and 0.5492
- TR-FRET signal (CDK12–cyclin K and DDB1; [5]): 0.8302 and 0.8222
- TR-FRET signal, individual replicate (CDK12–cyclin K and DDB1; [5]): 0.8302 and 0.8222
- TR-FRET signal at compound concentration (CDK12–cyclin K and DDB1; [5]): 0.8302 and 0.8222
- TR-FRET signal (CDK12–cyclin K and DDB1; [6]): 1.2679 and 1.278
- TR-FRET signal, individual replicate (CDK12–cyclin K and DDB1; [6]): 1.2679 and 1.278
- TR-FRET signal at compound concentration (CDK12–cyclin K and DDB1; [6]): 1.2679 and 1.278
- TR-FRET signal (CDK12–cyclin K and DDB1; [7]): 1.798 and 1.8918
- TR-FRET signal, individual replicate (CDK12–cyclin K and DDB1; [7]): 1.798 and 1.8918
- TR-FRET signal at compound concentration (CDK12–cyclin K and DDB1; [7]): 1.798 and 1.8918
- TR-FRET signal (CDK12–cyclin K and DDB1; [8]): 2.382 and 2.496
- TR-FRET signal, individual replicate (CDK12–cyclin K and DDB1; [8]): 2.382 and 2.496
- TR-FRET signal at compound concentration (CDK12–cyclin K and DDB1; [8]): 2.382 and 2.496
- TR-FRET signal (CDK12–cyclin K and DDB1; [9]): 2.742 and 2.9079
- TR-FRET signal, individual replicate (CDK12–cyclin K and DDB1; [9]): 2.742 and 2.9079
- TR-FRET signal at compound concentration (CDK12–cyclin K and DDB1; [9]): 2.742 and 2.9079
- TR-FRET signal (CDK12–cyclin K and DDB1; [10]): 3.1224 and 3.3313
- TR-FRET signal, individual replicate (CDK12–cyclin K and DDB1; [10]): 3.1224 and 3.3313
- TR-FRET signal at compound concentration (CDK12–cyclin K and DDB1; [10]): 3.1224 and 3.3313
- TR-FRET signal (CDK12–cyclin K and DDB1; [11]): 3.176 and 3.283
- TR-FRET signal, individual replicate (CDK12–cyclin K and DDB1; [11]): 3.176 and 3.283
- TR-FRET signal at compound concentration (CDK12–cyclin K and DDB1; [11]): 3.176 and 3.283
- EC50 (CDK12–cyclin K and DDB1; [12]): 0.057 ± 0.003 µM
- EC50 (CDK12–cyclin K and DDB1; sheet MOESM7, read-out: log TR-FRET EC50 (converted)): 0.0568 µM
- DC50 [1]: > 10 µM
Compound: CC[C@H](CO)Nc1nc(NCCCc2ccccc2)c2ncn(C(C)C)c2n1 [DS11]
- EC50 (HEK293T cells): > 10 µM
- Toxicity rescue (HEK293T cells): 0%

- EC50 (CDK12–cyclin K and DDB1; [2]): 0.774 µM
- TR-FRET signal, individual replicate (CDK12–cyclin K and DDB1; compound concentration 4.68 nM): 0.1383 and 0.1554
- TR-FRET signal, individual replicate (CDK12–cyclin K and DDB1; compound concentration 21.6 nM): 0.1534 and 0.1726
- TR-FRET signal, individual replicate (CDK12–cyclin K and DDB1; compound concentration 36 nM): 0.171 and 0.1959
- TR-FRET signal, individual replicate (CDK12–cyclin K and DDB1; [13]): 0.2152 and 0.2381
- TR-FRET signal, individual replicate (CDK12–cyclin K and DDB1; [14]): 0.2801 and 0.3063
- TR-FRET signal, individual replicate (CDK12–cyclin K and DDB1; [15]): 0.3618 and 0.4127
- TR-FRET signal, individual replicate (CDK12–cyclin K and DDB1; [16]): 0.3596 and 0.5492
- TR-FRET signal, individual replicate (CDK12–cyclin K and DDB1; [17]): 0.6021 and 0.6861
- TR-FRET signal, individual replicate (CDK12–cyclin K and DDB1; compound concentration 2448 nM): 0.7207 and 0.8094
- TR-FRET signal, individual replicate (CDK12–cyclin K and DDB1; [18]): 0.7638 and 0.9453
- TR-FRET signal, individual replicate (CDK12–cyclin K and DDB1; [19]): 0.8451 and 0.9714
- DC50 [1]: > 10 µM
Compound: CC[C@H](CO)Nc1nc(NCC2CCCCC2)c2ncn(C(C)C)c2n1 [DS12]
- EC50 (HEK293T cells): > 10 µM
- Toxicity rescue (HEK293T cells): 0%

- TR-FRET signal (CDK12–cyclin K and DDB1; compound concentration 4.68 nM): 0.1269 and 0.1552
- TR-FRET signal (CDK12–cyclin K and DDB1; compound concentration 21.6 nM): 0.1368 and 0.156
- TR-FRET signal (CDK12–cyclin K and DDB1; compound concentration 36 nM): 0.1404 and 0.1564
- TR-FRET signal (CDK12–cyclin K and DDB1; [13]): 0.1332 and 0.164
- TR-FRET signal (CDK12–cyclin K and DDB1; [14]): 0.1494 and 0.1683
- TR-FRET signal (CDK12–cyclin K and DDB1; [15]): 0.1517 and 0.1802
- TR-FRET signal (CDK12–cyclin K and DDB1; [16]): 0.1772 and 0.1976
- TR-FRET signal (CDK12–cyclin K and DDB1; [17]): 0.2017 and 0.2255
- TR-FRET signal (CDK12–cyclin K and DDB1; compound concentration 2448 nM): 0.2403 and 0.2789
- TR-FRET signal (CDK12–cyclin K and DDB1; [18]): 0.333 and 0.3875
- TR-FRET signal (CDK12–cyclin K and DDB1; [19]): 0.3528 and 0.412
- EC50 (CDK12–cyclin K and DDB1; [12]): 3.23 ± 0.959 µM
- DC50 [1]: > 10 µM
Compound: CCOCCOCCNc1nc(N[C@H](CC)CO)nc2c1ncn2C(C)C [DS13]
- EC50 (HEK293T cells): > 10 µM
- Toxicity rescue (HEK293T cells): 0%

- TR-FRET signal (CDK12–cyclin K and DDB1; compound concentration 4.68 nM): 0.1364 and 0.1548
- TR-FRET signal (CDK12–cyclin K and DDB1; compound concentration 21.6 nM): 0.1403 and 0.1585
- TR-FRET signal (CDK12–cyclin K and DDB1; compound concentration 36 nM): 0.1464 and 0.1703
- TR-FRET signal (CDK12–cyclin K and DDB1; [13]): 0.164 and 0.1861
- TR-FRET signal (CDK12–cyclin K and DDB1; [14]): 0.1899 and 0.214
- TR-FRET signal (CDK12–cyclin K and DDB1; [15]): 0.2284 and 0.2573
- TR-FRET signal (CDK12–cyclin K and DDB1; [16]): 0.2863 and 0.3257
- TR-FRET signal (CDK12–cyclin K and DDB1; [17]): 0.3495 and 0.4048
- TR-FRET signal (CDK12–cyclin K and DDB1; compound concentration 2448 nM): 0.4136 and 0.4783
- TR-FRET signal (CDK12–cyclin K and DDB1; [18]): 0.5447 and 0.6287
- TR-FRET signal (CDK12–cyclin K and DDB1; [19]): 0.6134 and 0.6953
- EC50 (CDK12–cyclin K and DDB1; [12]): 2.36 ± 0.777 µM
- DC50 [1]: > 10 µM
Compound: CC[C@H](CO)Nc1nc(NCc2ccc3cc(O)ccc3c2)c2ncn(C(C)C)c2n1 [DS14]
- EC50 (HEK293T cells): > 10 µM
- Toxicity rescue (HEK293T cells): 0%
